Earlier results in patent US20240307311A1, “STARCH BASED PRINTABLE MATERIALS” (ROQUETTE FRERES, priority 2021, published 2024).

solubility in water (descriptive class) | SMILES
freely soluble in water | Cn1c(=O)c2c(ncn2CC(O)CO)n(C)c1=O (centres unmarked) [diprophylline]
practically insoluble in water | CCC(C)n1ncn(-c2ccc(N3CCN(c4ccc(OCC5COC(Cn6cncn6)(c6ccc(Cl)cc6Cl)O5)cc4)CC3)cc2)c1=O (centres unmarked) [itraconazole]
